Assay results reported in PubChem BioAssay AID190 (DTP/NCI, 2004).
Several values for one entry are separate records, joined by “and”; a condition that tells them apart may be missing. Equal values may be shown once. Toxic doses and inconclusive results are not listed. Rule for the calls: active = survival T/C of 150% or more; inactive = T/C below 125% in these data.

System: AKR/Lw mice, AKR lymphoma ip, median survival T/C
Test: NCI In Vivo Anticancer Drug Screen. Data for tumor model Lymphoma AKR (Transplanted) (intraperitoneal) in AKR/Lw mice
Conditions: endpoint: median survival time, higher = longer survival
Method: The antitumor activity of compounds was measured in mice bearing transplantable tumors. Survival or tumor size were measured and the results are expressed as the measurement made in the treated group (T) divided by the measurement made in the vehicle treated control group (C). The tumor model used in this assay is Lymphoma AKR (Transplanted) (intraperitoneal) in AKR/Lw mice

[1] = dose: 100.0 mg/kg/injection, schedule: Q01DX001 (ip), vehicle: Klucel (hydroxypropylcellulose) (HPC)
[2] = dose: 200.0 mg/kg/injection, schedule: Q01DX001 (ip), vehicle: Klucel (hydroxypropylcellulose) (HPC)
[3] = dose: 400.0 mg/kg/injection, schedule: Q01DX001 (ip), vehicle: Klucel (hydroxypropylcellulose) (HPC)

Measured: T/C

CC(=O)NNC(=O)c1ccccn1
inactive: dose: 3.1 mg/kg/injection, schedule: Q04DX003 (ip), vehicle: Klucel (hydroxypropylcellulose) (HPC) 92 % of control | dose: 6.2 mg/kg/injection, schedule: Q01DX009 (ip), vehicle: Klucel (hydroxypropylcellulose) (HPC) 100 % of control | dose: 6.2 mg/kg/injection, schedule: Q04DX003 (ip), vehicle: Klucel (hydroxypropylcellulose) (HPC) 88 % of control and 102 % of control | dose: 12.5 mg/kg/injection, schedule: Q01DX009 (ip), vehicle: Klucel (hydroxypropylcellulose) (HPC) 112 % of control and 120 % of control | dose: 12.5 mg/kg/injection, schedule: Q04DX003 (ip), vehicle: Klucel (hydroxypropylcellulose) (HPC) 89 % of control and 96 % of control | dose: 25.0 mg/kg/injection, schedule: Q01DX001 (ip), vehicle: saline 97 % of control and 108 % of control | dose: 25.0 mg/kg/injection, schedule: Q01DX009 (ip), vehicle: Klucel (hydroxypropylcellulose) (HPC) 109 % of control and 114 % of control | dose: 25.0 mg/kg/injection, schedule: Q01DX009 (ip), vehicle: saline 87 % of control and 91 % of control | dose: 25.0 mg/kg/injection, schedule: Q04DX003 (ip), vehicle: Klucel (hydroxypropylcellulose) (HPC) 97 % of control and 105 % of control and 112 % of control | dose: 31.25 mg/kg/injection, schedule: Q01DX001 (ip), vehicle: Klucel (hydroxypropylcellulose) (HPC) 94 % of control | dose: 37.5 mg/kg/injection, schedule: Q01DX009 (ip), vehicle: saline 98 % of control | dose: 50.0 mg/kg/injection, schedule: Q01DX001 (ip), vehicle: Klucel (hydroxypropylcellulose) (HPC) 92 % of control | dose: 50.0 mg/kg/injection, schedule: Q01DX001 (ip), vehicle: saline 95 % of control and 107 % of control | dose: 50.0 mg/kg/injection, schedule: Q01DX009 (ip), vehicle: Klucel (hydroxypropylcellulose) (HPC) 120 % of control | dose: 50.0 mg/kg/injection, schedule: Q01DX009 (ip), vehicle: saline 101 % of control and 104 % of control | dose: 50.0 mg/kg/injection, schedule: Q04DX003 (ip), vehicle: Klucel (hydroxypropylcellulose) (HPC) 104 % of control and 109 % of control and 110 % of control | dose: 62.5 mg/kg/injection, schedule: Q01DX001 (ip), vehicle: Klucel (hydroxypropylcellulose) (HPC) 94 % of control | dose: 75.0 mg/kg/injection, schedule: Q01DX009 (ip), vehicle: saline 96 % of control | [1] 114 % of control | dose: 100.0 mg/kg/injection, schedule: Q01DX001 (ip), vehicle: saline 102 % of control and 115 % of control and 116 % of control | dose: 100.0 mg/kg/injection, schedule: Q01DX009 (ip), vehicle: Klucel (hydroxypropylcellulose) (HPC) 123 % of control | dose: 100.0 mg/kg/injection, schedule: Q01DX009 (ip), vehicle: saline 107 % of control | dose: 100.0 mg/kg/injection, schedule: Q04DX003 (ip), vehicle: other 117 % of control and 123 % of control | dose: 100.0 mg/kg/injection, schedule: Q04DX003 (ip), vehicle: saline 116 % of control | dose: 150.0 mg/kg/injection, schedule: Q01DX001 (ip), vehicle: Klucel (hydroxypropylcellulose) (HPC) 94 % of control | dose: 150.0 mg/kg/injection, schedule: Q01DX009 (ip), vehicle: saline 105 % of control | [2] 95 % of control | dose: 200.0 mg/kg/injection, schedule: Q01DX001 (ip), vehicle: saline 97 % of control and 107 % of control | dose: 200.0 mg/kg/injection, schedule: Q04DX003 (ip), vehicle: Klucel (hydroxypropylcellulose) (HPC) 87 % of control and 94 % of control | dose: 200.0 mg/kg/injection, schedule: Q04DX003 (ip), vehicle: other 107 % of control | dose: 200.0 mg/kg/injection, schedule: Q04DX003 (ip), vehicle: saline 116 % of control | dose: 250.0 mg/kg/injection, schedule: Q01DX001 (ip), vehicle: Klucel (hydroxypropylcellulose) (HPC) 107 % of control | [3] 100 % of control

S=C1NC(c2ccccc2)NC(c2ccccc2)S1 (configuration not stated)
inactive: [1] 92 % of control | [2] 92 % of control | [3] 96 % of control

COc1cccc2c1C(=O)c1c(O)c3c(c(O)c1C2=O)C[C@@](O)(C(C)=O)C[C@@H]3OC1CC(N)C(O)C(C)O1 (some centres not stated)
inactive: dose: 0.02 mg/kg/injection, schedule: Q01DX015 (ip), vehicle: saline 100 % of control | dose: 0.05 mg/kg/injection, schedule: Q01DX010 (ip), vehicle: saline 112 % of control | dose: 0.05 mg/kg/injection, schedule: Q01DX015 (ip), vehicle: saline 115 % of control | dose: 0.1 mg/kg/injection, schedule: Q01DX010 (ip), vehicle: saline 119 % of control | dose: 0.1 mg/kg/injection, schedule: Q01DX015 (ip), vehicle: saline 101 % of control and 110 % of control | dose: 0.18 mg/kg/injection, schedule: Q01DX015 (ip), vehicle: saline 106 % of control | dose: 0.2 mg/kg/injection, schedule: Q01DX010 (ip), vehicle: saline 122 % of control | dose: 0.2 mg/kg/injection, schedule: Q01DX015 (ip), vehicle: saline 106 % of control | dose: 0.3 mg/kg/injection, schedule: Q01DX015 (ip), vehicle: saline 99 % of control | dose: 0.37 mg/kg/injection, schedule: Q01DX015 (ip), vehicle: saline 121 % of control | dose: 0.4 mg/kg/injection, schedule: Q01DX015 (ip), vehicle: saline 103 % of control and 113 % of control
